# Earlier results as cited in patent US20250295639A1, “METHODS FOR TREATING HEART DISEASES” (Cytokinetics, Incorporated, priority 2024, published 2025).
# Test system: patients with oHCM
# Settings: cited from earlier work
compound,measurement,setting,value
CC(C)n1c(=O)cc(N[C@@H](C)c2ccccc2)[nH]c1=O [mavacamten],"benefit (pVO2, exercise duration, peak METs) in patients receiving beta blockers",EXPLORER-HCM,attenuation of benefit
same,peak oxygen uptake (pVO2) and other CPET parameters,patients with oHCM,has shown efficacy
